Here are results for twelve compounds from patent publication US4086361A, “Aminoethyl oximes having anti-depressive activity” (U.S. Philips Corporation, priority 1975, dated 1978).

Where a name gives a salt, the structure may show the parent alone.

What all share (assay type): in vivo, male albino mice
Experiment [1] has as its system noradrenaline (tetrabenazine ptosis). The experiment is described as follows: noradrenaline potentiation, tetrabenazine test. The settings on record: Mus musculus, oral, mice, 45 min before 80 mg/kg s.c. tetrabenazine, read-out: noradrenalin potentiation ED50. On the procedure:
The noradrenaline potentiation was determined in the tetrabenazine test. In this test a quantity of the compound to be tested was administered orally to five male albino mice. After 45 minutes the animals were injected subcutaneously with 80 mg/kg of tetrabenazine. After another 45 minutes the degree of ptosis was determined and compared with the ptosis of animals which had received tetrabenazine alone. The ED50 was determined from the results.

Experiment [2] has as its system serotonin (5-hydroxytryptophan). In words: serotonin potentiation, 5-hydroxytryptophan test. Particulars: Mus musculus; oral, mice; 1 hour before 150 mg/kg i.p. dl-5-hydroxytryptophan. On the procedure: The serotonin potentiation was determined in the 5-hydroxytryptophan test. For this purpose, the compounds to be tested were administered orally in a series of dosages to isolated male albino mice (5 mice per dosage) 1 hour prior to intraperitoneal administration of 150 mg/kg of dl-5-hydroxytryptophan. Thirty minutes after this threshold dosage the mice were observed individually and the following parameters were scored: stereotypical shaking of the head, spreading of the hindlegs, tremor, tendency to flee, lordosis, clonic stamping with the frontlegs. The ED50 value was calculated from the results.

Another experiment has as its system monoamino oxidase (MAO). In words: monoamino oxidase (MAO) inhibiting effect, tryptamine hydrochloride mortality test. Particulars: oral, mice; 1 hour before 250 mg/kg s.c. tryptamine hydrochloride; mortality after 18 hours. The method, then: The monoamino oxidase (MAO) inhibiting effect was determined in experiments in which a quantity of the compound to be tested was administered orally to five male albino mice. One hour later the animals were injected subcutaneously with tryptamine hydrochloride in a quantity of 250 mg/kg. […] Eighteen hours after the administration of tryptamine hydrochloride it was determined how many treated animals had died. The ED50 was determined from the results. By means of the method by Metysova, Arzneimittelforschung 13,- 1039 (1963) it was determined whether the oral administration of 200 mg of a compound to be tested to rats causes stomach ulceration.

Usually ED50 stands for the midpoint of the dose-response relation. For `CCCCCC(=NOCCN)c1ccc(Br)cc1` [Br CH3, reference compound], the ED50 turned out to be 3.1 mg/kg in experiment [1] and 10 mg/kg in experiment [2]. For the same compound, the “MAO inhibition ED50” value in the experiment on monoamino oxidase (MAO) is on record as greater than 215 mg/kg.
Regarding `Cl.N#CCCCCC(=NOCCN)c1ccc(Br)cc1` [Br CN, 4'-bromo-5-cyanovalerophenone O-(2-aminoethyl) oxime hydrochloride], the ED50 in experiment [1] worked out at 11.2 mg/kg; in experiment [2] it was 20 mg/kg. Also, in the experiment with monoamino oxidase (MAO), the “MAO inhibition ED50” value is on record as greater than 215 mg/kg.
Consider `COCCOCCCCC(=NOCCN)c1ccc(Br)cc1` [Br OC2 H4 OCH3, 4'-bromo-5-(2-methoxyethoxy) valerophenone O-(2-aminoethyl) oxime fumarate (1 : 1)], for which the ED50 worked out at 6.6 mg/kg in experiment [1] and 35 mg/kg in experiment [2]. Further, the “MAO inhibition ED50” value with monoamino oxidase (MAO) was greater than 215 mg/kg.
Taken in the same sequence, the figures for `COCCCCC(=NOCCN)c1ccc(Br)cc1` [Br OCH3, 4'-bromo-5-methoxyvalerophenone O-(2-aminoethyl) oxime fumarate (1 : 1)] were 6.6 mg/kg, 22 mg/kg and greater than 215 mg/kg.
Consider `COCCCCCC(=NOCCN)c1ccc(Cl)cc1.Cl` [Cl C2 OCH3, 4'-chloro-6-methoxycaprophenone O-(2-aminoethyl) oxime hydrochloride], for which the figures for the ED50 in experiment [1] and in experiment [2] were 5.3 mg/kg and 36 mg/kg, respectively. Further, in the experiment on monoamino oxidase (MAO), the “MAO inhibition ED50” value is recorded as greater than 215 mg/kg.
As to `Cl.N#CCCCCCC(=NOCCN)c1ccc(Cl)cc1` [Cl CH2 CN, 4'-chloro-6-cyanocaprophenone O-(2-aminoethyl) oxime hydrochloride], the figures for the ED50 in experiment [1] and in experiment [2] were 11 mg/kg and 38 mg/kg, respectively. Moreover, the “MAO inhibition ED50” value in the experiment on monoamino oxidase (MAO) is greater than 215 mg/kg.
As for `CCOCCCCCC(=NOCCN)c1ccc(Cl)cc1.Cl` [Cl CH2 OC2 H5, 4'-chloro-6-ethoxycaprophenone O-(2-aminoethyl) oxime hydrochloride], the ED50 was determined as 7.4 mg/kg in experiment [1] and 54 mg/kg in experiment [2]. Moreover, in the experiment with monoamino oxidase (MAO), the “MAO inhibition ED50” value is recorded as greater than 215 mg/kg.
Consider `CCCCCC(=NOCCN)c1ccc(Cl)cc1` [Cl CH3, reference compound], for which the figures for the median effective dose (ED50) in experiment [1] and in experiment [2] were 1.9 mg/kg and 14 mg/kg, respectively. Besides, the “MAO inhibition ED50” value in the experiment on monoamino oxidase (MAO) is given as greater than 215 mg/kg.
For `Cl.N#CCCCCC(=NOCCN)c1ccc(Cl)cc1` [Cl CN, 4'-chloro-5-cyanovalerophenone O-(2-aminoethyl) oxime hydrochloride], the figures for the ED50 in experiment [1] and in experiment [2] were 6.8 mg/kg and 20 mg/kg, respectively. In addition, the “MAO inhibition ED50” value in the experiment on monoamino oxidase (MAO) is greater than 215 mg/kg.
On to `CCCCC(=NOCCN)c1ccc(Cl)cc1` [Cl H, reference compound], for which the ED50 was 5.6 mg/kg in experiment [1] and 12 mg/kg in experiment [2]. Further, the “MAO inhibition ED50” value in the experiment with monoamino oxidase (MAO) is reported as greater than 215 mg/kg.
Regarding `COCCOCCCCC(=NOCCN)c1ccc(Cl)cc1` [Cl OC2 H4 OCH3, 4'-chloro-5-(2-methoxyethoxy) valerophenone O-(2-aminoethyl) oxime fumarate (1 : 1)], the median effective dose (ED50) worked out at 4 mg/kg in experiment [1] and 41 mg/kg in experiment [2]. Moreover, the “MAO inhibition ED50” value in the experiment on monoamino oxidase (MAO) is given as greater than 215 mg/kg.
In the same order, the values of `CCOCCCCC(=NOCCN)c1ccc(Cl)cc1` [Cl OC2 H5, 4'-chloro-5-ethoxyvalerophenone O-(2-aminoethyl) oxime fumarate (1 : 1)] are 4.3 mg/kg, 36 mg/kg and greater than 215 mg/kg.
